Measurements taken from patent US11414454B2, “Compositions, methods, and systems for affinity-based protein identification and purification” (Auctus Biologies, Inc., priority 2017, dated 2022).
Residues, ends and D or L forms follow the SMILES beside them. No end group written: not given here.

Tests used:
[1] = test system: RPtag (large); assay: Association/dissociation kinetics of RPtag (small) peptides with RPtag (large) by fluorescence anisotropy; type: binding, Thermoanaerobacter tengcongensis; details: for koff: LS dissociation, unlabeled competitor peptide; for kon (M^−1 min^−1 ) (×10^7): S*-LS transition, calculated from measured koff and Kd
Description: Panel a depicts representative association rate kinetics traces varying native RPtag small. Rhodamine labeled RPtag small at the indicated concentration was incubated with unlabeled RPtag large and the association measured by fluorescence anisotropy. L-S complex concentration was calculated by the equation (r−rmin)/(rmax−rmin)*[S] where r is the measured anisotropy, rmin is the anisotropy in the absence of any RPtag large, rmax is the anisotropy measured in the presence of at saturating RPtag large, and [S] is the total concentration of RPtag small used in the experiment. […] Dashed cyan lines are simulations of the mechanism shown in f using the rate constants detailed herein. The concentrations in the simulations were multiplied by a correction factor of 0.925, which is well within the 90% purity specification of the purchased peptide.
LS complex was performed by incubating 1000 nM RPtag large with the indicated concentrations of rhodamine labeled RPtag small. At the start of the experiment, 0.1 mM unlabeled native RPtag small was added and fluorescence anisotropy monitored. Data processing was done as in panel a, except the red fits were to the single exponential decay equation y=y0+A*exp(−b*t). As expected, the initial dissociation rates were linear with respect to the LS complex.
Fitting to a line yields a rate constant (koff)=0.0091 min^−1 (FIG. 9 panel e). In good agreement, when the kinetics are fit with a first order rate law, a rate constant of 0.012±0.002 min^−1 (n=15) was observed. […] Panel e is a graph of the initial rates of the traces represented in d. Slope of the fit line is 0.0091 min^−1. Data are mean±SE (n=3).
The library of mutant RPtag(small) peptides, described above, was next analyzed to measure off rates (koff). The on rate was also calculated from measured koff and Kd (S*-LS transition), except instead of using unlabeled native peptide as the competitor, we used unlabeled Nd2,P5A,E18A (the tightest binding RPtag(small) peptide identified). […] However, there were notable exceptions. […] This indicates, without wishing to be limited, that P5 may constrain the structure of the peptide. The increased flexibility imparted to the peptide by the P5A mutation may decrease the energy barrier required for binding/unbinding.

[2] = molecular target: RPtag (large); assay: Fluorescence anisotropy Kd of rhodamine labeled RPtag (small) peptides for RPtag (large); type: binding, Thermoanaerobacter tengcongensis; details: N-terminal rhodamine tagged peptide, unlabeled RPtag (large), 50 mM Tris pH 8.0, 0.005% Tween 20; mean ± SE
Description: 50 nM of RP-Tag Small (see Sequence 3, below) with an N-terminal Rhodamine B label was incubated with increasing concentrations of either RP-Tag Large (see Sequence 2) or Bovine Serum Albumin (BSA) in 50 mM Tris pH 8.0, 150 mM NaCl, 10 mM 2-mercaptoethanol, and 0.005% Tween 20 for 5 min in black 96-well plates at room temperature.
Anisotropy was then measured, and a Kd calculated by fitting the data to the equation f=y0+(ymax−y0)*(Ptot+x+Kd−sqrt((Ptot+x+Kd)^2−4*Ptot*x))/(2*Ptot), where y0 is the baseline anisotropy, ymax is the maximum anisotropy, Ptot is the fixed concentration of labeled peptide used, x is the variable concentration of protein used, and Kd is the measured Kd.
The indicated concentrations of RPtag (large) and an anti-His tag antibody (4E3D10H2/E3 purchased from ThermoFisher Scientific) were incubated with 1 nM rhodamine labeled native RPtag (small) peptide and 6×His peptide (Rhodamine-GHHHHHH), respectively, and fluorescence anisotropy measured. BSA incubated with native rhodamine labeled RPtag(small) is included as a control for non-specific binding. Kd's were calculated according to the equation f=y0+(ymax−y0)*(Ptot+x+Kd−sqrt((Ptot+x+Kd)^2−4*Ptot*x))/(2*Ptot), where y0 is the baseline anisotropy, ymax is the maximum anisotropy, Ptot is the fixed concentration of labeled peptide used, x is the variable concentration of protein used, and Kd is the measured Kd. We measured a Kd of 0.2±0.1 nM for RPtag(large) binding RPtag(small), and a Kd of 6±1 nM for the antibody/6×His tag pair.
Regarding the studies shown in FIG. 14, increasing concentrations of unlabeled RPtag large with the indicated mutations (native, f137d, and f137e) were incubated for 1 h with 1 nM rhodamine labeled RPtag small peptide and the fluorescence anisotropy was measured. Resultant curves were fit with the equation f=y0+(ymax−y0)*(Ptot+x+Kd−sqrt((Ptot+x+Kd)^2−4*Ptot*x))/(2*Ptot), where y0 is the baseline anisotropy, ymax is the maximum anisotropy, Ptot is the fixed concentration of labeled peptide used, x is the variable concentration of protein used, and Kd is the measured Kd. Data are presented here as Ka=1/Kd. Log transformed Ka's were then compared by one-way ANOVA with Holm-Sidak post hoc correction. ***p<0.001, **p<0.01, *p<0.05. data are mean±SEM (n=3-4). Buffer was 50 mM Tris pH 8.0, 0.005% tween20. Proteins were expressed and purified by single step NiNTA chromatography as before. Peptides were synthesized solid-state and handled as previous.

Molecule | koff [1] [s⁻¹] | Kd [2] [µM] | kon (M^−1 min^−1 ) (×10^7) [1]
LITKENVQ [Nd13] | >0.033 |  | 
GEKIPNFIPAELK [Cd8] |  | > 100 | 
GEKIPNFI [Cd13] |  | > 100 | 
KIANFIPAELKLITK [Nd2, Cd4, p5a] | 0.003 ± 0.00017 |  | 22 ± 1 ×10^7 M^−1 min^−1
RIANFIPAELKLITKANVQ [Nd2, k3r, p5a, e18a] | 0.000217 ± 1.7e-05 |  | 3.4 ± 0.1 ×10^7 M^−1 min^−1
GEKIPNFIAPELALITKENVQ [k13a] | 0.0003 ± 1.7e-05 | 0.0011 ± 0.0001 | 1.7 ± 0.1 ×10^7 M^−1 min^−1
ELKLITKE [Nd10, Cd3] | >0.033 |  | 
FIPAELKLITKENVQ [Nd6] | 0.00108 ± 5e-05 |  | 12 ± 1 ×10^7 M^−1 min^−1
FIPAELKLITK [Nd6, Cd4, FIPAELKLITK] | >0.033 | 0.0099 ± 0.0011 | 
EKIPNFIPAELKLITKENVQ [Nd1] | 0.000147 ± 1.7e-06 |  | 3.4 ± 0.1 ×10^7 M^−1 min^−1
GEKIP [Cd16] |  | > 100 | 
GEKIPNFIPAEL [Cd9] |  | > 100 | 
GEKIPNFIPAELKLATKENVQ [i15a] | 0.0183 ± 0.005 |  | 25 ± 6 ×10^7 M^−1 min^−1
GEKIPNFIPA [Cd11] |  | > 100 | 
GEKIPNFIAAELKLITKENVQ [p9a] | 4e-05 ± 6.7e-06 |  | 1.4 ± 0.2 ×10^7 M^−1 min^−1
PAELKLITKA [Nd8, Cd3, e18a] | >0.033 |  | 
NFIPAELKLITKENVQ [Nd5] | 0.000933 ± 1.7e-05 |  | 9.6 ± 0.1 ×10^7 M^−1 min^−1
GEKIPNFIPAELKAITKENVQ [l14a] | >0.033 |  | 
KENVQ [Nd16] |  | > 100 | 
KLITKENVQ [Nd12] | >0.033 |  | 
CC(C)[C@H](NC(=O)[C@H](CC(N)=O)NC(=O)[C@@H](N)CCC(=O)O)C(=O)N[C@@H](CCC(N)=O)C(=O)O [Nd17, ENVQ] (H-ENVQ-OH; N-terminus and C-terminus assumed) |  | > 100 | 
KIPNFIPAELKLITKE [Nd2, Cd3] | 0.000767 ± 3.3e-05 |  | 8.2 ± 0.3 ×10^7 M^−1 min^−1

Molecule | koff [1] [s⁻¹] | Kd [2] [µM] | kon (M^−1 min^−1 ) (×10^7) [1]
KIANFIPAELKLITKA [Nd2, Cd3, p5a, e18a] | 0.003 ± 0.00017 |  | 33 ± 2 ×10^7 M^−1 min^−1
IANFIPAELKLITKANVQ [Nd3, p5a, e18a] | 0.000967 ± 3.3e-05 |  | 9.2 ± 0.4 ×10^7 M^−1 min^−1
GEKIANFIPAELKLITKENVQ [p5a] | 0.0004 ± 3.3e-05 |  | 
ELKLITKA [Nd10, Cd3, e18a] | >0.033 |  | 
GEKIPNFIPAE [Cd10] |  | > 100 | 
KIPNFIPAELKLITKANAA [Nd2, e18a, v20a, q21a] | 0.000383 ± 1.7e-05 |  | 3.6 ± 0.3 ×10^7 M^−1 min^−1
FIPAELKLITKA [Nd6, Cd3, e18a] | >0.033 |  | 
GEKIPNF [Cd14] |  | > 100 | 
KIPNFIPAELKLITK [Nd2, Cd4] | 0.00132 ± 0.0001 |  | 20 ± 2 ×10^7 M^−1 min^−1
GEKIPNFIPAELKLITKE [Cd3] | 0.002 ± 0.00033 |  | 
GEKIPNAIPAELKLITKENVQ [f7a] | 0.00105 ± 5e-05 |  | 3.1 ± 0.1 ×10^7 M^−1 min^−1
GEKIPNFIPAALKLITKENVQ [e11a] | 0.000112 ± 8.3e-06 |  | 0.46 ± 0.06 ×10^7 M^−1 min^−1
IPNFIPAELKLITKENVQ [Nd3] | 0.0002 ± 1.7e-05 |  | 8.8 ± 0.3 ×10^7 M^−1 min^−1
GEKIPNFIPAELKLIT [Cd5] | 0.0065 ± 0.00383 |  | 11 ± 7 ×10^7 M^−1 min^−1
KIPNFIPAELKLITKENVQ [Nd2] | 5.83e-05 ± 1.3e-05 |  | 5.3 ± 1.3 ×10^7 M^−1 min^−1
GEKIPNFIPAEAKLITKENVQ [l12a] | 0.00333 ± 0.001 |  | 4.3 ± 1.2 ×10^7 M^−1 min^−1
TKENVQ [Nd15] |  | > 100 | 
IPAELKLITKENVQ [Nd7] | 0.0007 ± 0.000167 |  | 1.8 ± 0.4 ×10^7 M^−1 min^−1
GEKIPNFIPAELKL [Cd7] | >0.033 |  | 
AELKLITKENVQ [Nd9] | 0.00667 ± 0.00067 |  | 8.2 ± 0.9 ×10^7 M^−1 min^−1
GEKIPNFIPAELKLIAKENVQ [t16a] | 0.00148 ± 5e-05 |  | 7.5 ± 0.3 ×10^7 M^−1 min^−1
GEKIPNFIPAELKLI [Cd6] | >0.033 |  | 

Molecule | koff [1] [s⁻¹] | Kd [2] [µM] | kon (M^−1 min^−1 ) (×10^7) [1]
LKLITKENVQ [Nd11] | 0.02 ± 0.01 |  | 7.1 ± 3.8 ×10^7 M^−1 min^−1
GEAIPNFIPAELKLITKENVQ [k3a] | 8.83e-05 ± 1.2e-05 |  | 1.1 ± 0.1 ×10^7 M^−1 min^−1
ELKLITKENVQ [Nd10] | 0.00417 ± 0.00067 |  | 4.3 ± 0.7 ×10^7 M^−1 min^−1
FIPAELKLITKE [Nd6, Cd3] | >0.033 |  | 
PAELKLITKENVQ [Nd8] | 0.000917 ± 3.3e-05 |  | 9.3 ± 0.3 ×10^7 M^−1 min^−1
KIANFIPAELKLITKANAA [Nd2, p5a, e18a, v20a, q21a] | 0.000217 ± 1.7e-05 |  | 20 ± 1 ×10^7 M^−1 min^−1
KIPNFIPAELKLITKA [Nd2, Cd3, e18a] | 0.000883 ± 3.3e-05 |  | 40 ± 2 ×10^7 M^−1 min^−1
PAELKLITKE [Nd8, Cd3] | >0.033 |  | 
GEKIPAFIPAELKLITKENVQ [n6a] | 2.5e-05 ± 5e-06 |  | 0.45 ± 0.09 ×10^7 M^−1 min^−1
PNFIPAELKLITKENVQ [Nd4] | 0.000467 ± 1.7e-05 |  | 9.4 ± 0.4 ×10^7 M^−1 min^−1
ELKLIT [Nd10, Cd5] | >0.033 |  | 
KIANFIPAELKLITKE [Nd2, Cd3, p5a] |  |  | 26 ± 1 ×10^7 M^−1 min^−1
GEKIPNFAPAELKLITKENVQ [i8a] | 0.0015 ± 0.00015 |  | 8.6 ± 0.9 ×10^7 M^−1 min^−1
GEKIPNFIPAELKLITKEN [Cd2] |  |  | 9.8 ± 0.3 ×10^7 M^−1 min^−1
AIANFIPAELKLITKENVQ [Nd2, k3a, p5a] | 0.00015 ± 6.7e-06 |  | 
ITKENVQ [Nd14] |  | > 100 | 
KIPNFIPAELKLITKANVQ [Nd2, e18a] | 0.000138 ± 1.67e-05 |  | 6.5 ± 0.7 ×10^7 M^−1 min^−1
GEKAPNFIPAELKLITKENVQ [i4a] | 0.0001 ± 3.3e-06 |  | 
GEKIPNFIPAELKLITK [Cd4] | 0.00367 ± 0.00033 |  | 22 ± 2 ×10^7 M^−1 min^−1
GEKIPN [Cd15] |  | > 100 | 
GEKIPNFIPAELKLITAENVQ [k17a] | 9.5e-05 ± 3.3e-06 |  | 1.0 ± 0.1 ×10^7 M^−1 min^−1
